Experimental data as given in patent publication US4413009A, “N-((Alkylamino)carbonyl)-N-(((alkylamino)carbonyl)oxy)acylamides with antineoplastic activity” (priority 1982, dated 1983).

How the values were obtained:
HeLa cells = test: HeLa cell colony cytotoxicity / growth inhibition test; type: cell-based, human; conditions: 8 days, 0-50 μg/ml
Procedure: HeLa cells were seeded in 24-well tissue culture plates at a concentration of 30 cells per well in 1 ml of growth medium (Eagle's minimum essential medium with 5 percent HIFCS). The plates were incubated at 36° C. for 24 hours after which the growth medium was removed. The cells were resuspended in 1 ml of fresh growth medium described above together with a measured quantity of (0-50 μg/ml) of one of the compounds of this invention. The 0 μg/ml concentration served as a control. The tissue culture plates were then incubated at 36° C. for 8 days at which time the medium was removed and the cells were fixed and stained with 0.1% crystal violet in 20% ethanol. The HeLa cell colonies were counted macroscopically, and comparisons of colony size in treated and control wells were made. Test compounds were considered cytotoxic at concentrations which reduced the number of HeLa cell colonies compared to control by 50% or more. Test compounds of the invention were considered to cause HeLa cell growth inhibition at concentrations which reduced the size of colonies by a measurable amount when compared to control.

P388 leukemia = test: Antineoplastic activity against P388 lymphocytic leukemia in mice (IP), survival time and toxicity day survivors; type: in vivo, mice (CDF1); conditions: for Toxicity Day Survivors: survivors/started
Procedure: (A) Test mice (CDF1 mice) were injected intraperitoneally (IP) with ascitic fluid containing 10^6 cells of P388 lymphocytic leukemia. The test compound was administered in a sialine -Tween 80 carrier at the appropriate dosage, IP daily for 9 days; the initial treatment performed the first day after tumor inoculation. Control mice received no compound.

[1] = test system: MX-1 human breast xenograft; test: Activity against MX-1 human breast xenograft in subrenal capsule of athymic mice, tumor size change and toxicity day survivors; type: in vivo, human (xenograft in athymic Swiss Nu/Nu mice); conditions: survivors/started
Procedure: (B) A tumor fragment (MX-1 human breast xenograft) having a diameter of between 9 and 12 ocular micrometer units (OMU) (approximately 1×1×1 millimeter) was implanted and measured in situ in the subrenal capsule of athymic Swiss (Nu/Nu Swiss) mice. The appropriate dosage of the test compound in a saline carrier was administered by subcutaneous injection once daily for 10 days; the initial treatment was performed on the first day after tumor implant. No test compound was administered to the control mice. Test mice were sacrificed on the eleventh day and tumor size noted. The change in tumor diameter (from day 0 (implant day) to day 11 (sacrifice day)) as compared with the tumor size of the control was used as an evaluation of tumor growth or regression.

[2] = Experiment No. 1, 50.00 mg/kg per injection IP daily for 9 days
[3] = Experiment No. 2, 12.50 mg/kg per injection IP daily for 9 days
[4] = Experiment No. 2, 25.00 mg/kg per injection IP daily for 9 days
[5] = Experiment No. 2, 50.00 mg/kg per injection IP daily for 9 days

Question: What does the source list for `CNC(=O)ON(C(C)=O)C(=O)NC` [Example 1, N-((Methylamino)carbonyl)-N-(((methylamino)carbonyl)oxy)acetamide]?
Answer: Cell Growth Inhibition: concentration at which the size of the HeLa colonies were reduced by a measurable amount (as compared to control) (HeLa cells): 12.5 µg/mL; median survival time of the test animals (in words) (P388 leukemia; 50 mg/kg per injection, one experiment): increased the median survival time; median survival time of the test animals (in words) (P388 leukemia; 12.50, 25 and 50 mg/kg per injection, another experiment): increased the median survival time; T/C % (median survival time, treated vs control) (P388 leukemia; [2]): 142%; Toxicity Day Survivors (P388 leukemia; [2]): 06/06; Toxicity Day Survivors (P388 leukemia; Experiment No. 1, 100.00 mg/kg per injection IP daily for 9 days): 01/06; Toxicity Day Survivors (P388 leukemia; Experiment No. 1, 200.00 mg/kg per injection IP daily for 9 days): 00/06; T/C % (median survival time, treated vs control) (P388 leukemia; [3]): 131%; Toxicity Day Survivors (P388 leukemia; [3]): 06/06; T/C % (median survival time, treated vs control) (P388 leukemia; [4]): 126%; Toxicity Day Survivors (P388 leukemia; [4]): 06/06; T/C % (median survival time, treated vs control) (P388 leukemia; [5]): 141%; Toxicity Day Survivors (P388 leukemia; [5]): 06/06; Toxicity Day Survivors (P388 leukemia; Experiment No. 2, 100.00 mg/kg per injection IP daily for 9 days): 03/06; median survival time of the test mice afflicted with P388 leukemia (in words) (P388 leukemia; Table 3 data): increased the median survival time; Toxicity Day Survivors ([1]; Experiment 1, 12.5 mg/kg s.c. daily for 10 days): 03/03; Toxicity Day Survivors ([1]; Experiment 1, 25 mg/kg s.c. daily for 10 days): 03/03; Toxicity Day Survivors ([1]; Experiment 1, 50 mg/kg s.c. daily for 10 days): 03/03; Toxicity Day Survivors ([1]; Experiment 1, 100 mg/kg s.c. daily for 10 days): 01/03; Toxicity Day Survivors ([1]; Experiment 2, 25 mg/kg s.c. daily for 10 days): 06/06; Toxicity Day Survivors ([1]; Experiment 2, 50 mg/kg s.c. daily for 10 days): 06/06; Toxicity Day Survivors ([1]; Experiment 2, 100 mg/kg s.c. daily for 10 days): 06/06; Toxicity Day Survivors ([1]; Experiment 2, 200 mg/kg s.c. daily for 10 days): 05/06; Toxicity Day Survivors ([1]; Experiment 3, 25 mg/kg s.c. daily for 10 days): 06/06; Toxicity Day Survivors ([1]; Experiment 3, 50 mg/kg s.c. daily for 10 days): 06/06; Toxicity Day Survivors ([1]; Experiment 3, 100 mg/kg s.c. daily for 10 days): 06/06; Toxicity Day Survivors ([1]; Experiment 3, 200 mg/kg s.c. daily for 10 days): 00/06; Toxicity Day Survivors ([1]; Experiment 4, 25 mg/kg s.c. daily for 10 days): 03/03; Toxicity Day Survivors ([1]; Experiment 4, 50 mg/kg s.c. daily for 10 days): 02/02; Toxicity Day Survivors ([1]; Experiment 4, 100 mg/kg s.c. daily for 10 days): 03/03; Toxicity Day Survivors ([1]; Experiment 4, 200 mg/kg s.c. daily for 10 days): 01/03
